Assay [1] deals with phosphorylation of H2AX (gH2AX) in U2OS-TopBP1-ER cells. Briefly: gH2AX-TopBP1ER cellular assay. The settings on record: Table 1, class symbols, 4-OHT. The class given is cell-based. An excerpt:
gH2AX-TopBP1ER Cellular Assay
ATR activity is restricted to replicating cells and many of its targets can also be phosphorylated by other PIKKs. These restrictions have limited the development of selective cellular assays in the past. In order to overcome these limitations, a previously developed genetically engineered cellular system in which ATR, and only ATR, can be activated at will in every cell (Toledo et al Genes Dev. 22, 297-302 2008) was used. In this system, the addition of 4-hydroxytamoxifen (4-OHT), promotes the nuclear translocation of a fragment of TopBP1 which then activates ATR. The phosphorylation of H2AX that follows 4-OHT addition in these cells is a direct and selective readout of ATR activity, which is not influenced by the rest of PIKKs. This property has been used in a screen for compounds with ATR inhibitory capacity. U2OS-TopBP1-ER cells stably express the TopBP1 activation domain (aa 978-1286) fused to a mutated estrogen receptor ligand binding domain. Nuclear accumulation of the TopBP1-ER-LBD fusion protein is induced by the synthetic ER antagonist 4-hydroxytamoxifen (4-OHT) (and not by natural ER agonists) mediating specific ATR activation that is independent of DNA damage or cell cycle. In the assay phosphorylation of the ATR substrate H2AX (“gH2AX”) at Serin 139 is detected using an immune-cytochemical procedure and high content imaging. For the assay U2OS-TopBP1-ER cells are plated in culture medium (DMEM high Glucose (no phenol red), 2 mM Glutamax, 1 mM Pyruvate, 10% FCS into Greiner 384 well plates, black, μclear #781090 (4000 cells/well/30 μl) and incubated for at least 20 hours at 37° C., 10% CO2 and 90% rH. Diluted test compounds (1 nM-30 μM final) and 4-OHT (1 μM final) are added simultaneously and cells are incubated for 2 h at 37° C. After fixation with 4% formaldehyde and permeabilisation with 0.2% Triton X-100 a complete immunocytochemical procedure is performed using a specific anti-gH2AX-antibody (Millipore 05-636, clone JBW301) and fluorescently labelled secondary antibody (Alexa Fluor® 488 goat anti-mouse F(ab′)2 fragment, Invitrogen A11017) and parallel nuclear staining for cell counting. The nuclear localised gH2AX signal is detected on an ImageXpress Ultra confocal high content reader and reported as % positive cells (nuclei).

Assay [2] concerns phosphorylation of Chk1 (Ser 345) in HT29 colon adenocarcinoma cells. Briefly: pCHK1 cellular assay. Particulars: Homo sapiens. The class given is cell-based. The method in brief: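 HT29 cells plated ≥20 h, then compound (1 nM–30 μM final) with hydroxyurea (3 mM final) added together for 4 h at 37 °C. After MeOH/Triton fixation-permeabilisation, anti-pChk1 immunostaining plus nuclear stain; nuclear pChk1 imaged by confocal high content reader, reported as % positive nuclei.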

The mark [3] stands for this setting: HT-29, Table 1, class symbols, hydroxyurea.

pIC50: −log10 of the molar value.

In general, pIC50 refers to the IC50 on a negative log10 scale, so that one unit is a factor of ten. Low readings indicate a large IC50, high ones a small IC50. As to `C[C@@H]1COC[C@H]2COc3c(nc(-c4c(N)cnc5[nH]ccc45)nc3C(C)(C)S(C)(=O)=O)N21` [A20, 4-[(4bR,8S)-1-(1-Methanesulfonyl-1-methyl-ethyl)-5-methyl-5,6,8a,9-tetrahydro-8H-7,10-dioxa-2,4,4b-triaza-phenanthren-3-yl]-1H-pyrrolo[2,3-b]pyridin-5-ylamine], the negative-log IC50 (pIC50) in assay [1] is 7.00 to 8.00; in assay [2] (setting [3]), 7.00 to 8.00; in assay [2] (HT-29, Table 3, hydroxyurea), 7.44.
Turning to `C[C@@H]1COC[C@H]2COc3c(nc(-c4ccnc5[nH]ccc45)nc3C(C)(C)S(C)(=O)=O)N21` [A13, (6R,8aS)-1-(1-Methanesulfonyl-1-methyl-ethyl)-5-methyl-3-(1H-pyrrolo[2,3-b]pyridin-4-yl)-5,6,8a,9-tetrahydro-8H-7,10-dioxa-2,4,4b-triaza-phenanthrene], the pIC50 is 7.00 to 8.00 in assay [1]; 7.00 to 8.00 in assay [2] (setting [3]); 7.70 in assay [2] (HT-29, Table 3, hydroxyurea).
Consider `CNc1cnc2[nH]ccc2c1-c1nc2c(c(C(C)(C)S(C)(=O)=O)n1)OC[C@@H]1COC[C@@H](C)N21` [A1, {4-[(S)-1-(1-Methanesulfonyl-1-methyl-ethyl)-5-(R)-methyl-5,6,8a,9-tetrahydro-8H-7,10-dioxa-2,4,4b-triaza-phenanthren-3-yl]-1H-pyrrolo[2,3-b]pyridin-5-yl}-methyl-amine], for which the negative logarithm of the IC50 (pIC50) in assay [1] was 7.00 to 8.00; in assay [2] (setting [3]) it was > 8.00; in assay [2] (HT-29, Table 3, hydroxyurea) it was 8.21.

Source of the values: patent US10570149B2, “Tricyclic heterocylic derivatives” (MERCK PATENT GMBH, priority 2016, dated 2020).
